Reference: patent US20090169487A1, “Essential Oil Diffusion” (priority 2007, published 2009)

How the values were obtained:
[1] = asthmatics, double-blind randomized control trial; cited from earlier work
[2] = Case report: diffused essential oils after NAC and Dornase Alfa in a child with RSV, oxygen requirement and atelectasis; format: in vivo, human; settings: for Overall response of oxygen requirement to treatment: summary of the case
From the text: They experienced a three day prodrome of upper and lower respiratory symptoms and increasing oxygen requirement treated initially at home. They were admitted to a local hospital 7 days prior to the current admission where they continued to received oxygen and was started on a 7 day antibiotic course despite a positive respiratory direct fluorescent antibody test for RSV. They were discharged home on 3 liters oxygen and persistent left upper lobe atelectasis. They presented to our pediatric intensive care unit (PICU) within 12 hours of discharge with respiratory distress and central cyanosis, pulse oximetry oxygen saturation (spO2) 83% off oxygen, 88% on 3 liters per minute (LPM) oxygen.
Past medical history was significant for titanium rib insertion for restrictive lung disease, metal rods for thoracic scoliosis, hip repair for hip dislocation, and gastric feeding tube placement. Their home medication regimen included a multivitamin, calcium carbonate, and levalbuterol 1 unit dose nebulized every 8 hours. Lasix had been added during the prior hospitalization.
MW was placed on 6 liters humidified, high-flow nasal canula oxygen (NC O2), achieving a spO2 of 93-98%. […] pulmonary toilet regimen consisted of percussor chest physiotherapy every four hours and postural drainage. On day 4 of admission, day 14 of oxygen requirement, nebulized 20% n-acetyl cysteine (NAC) every eight hours was added. Oxygen requirement began to improve over the next 24 hours, weaning to 2 LPM NC O2, but returned to 3 LPM when […] remained persistently below spO2 93%. Nebulized Dornase Alfa 2.5 mg every twelve hours was added on day 7, day 17 of oxygen requirement. Oxygen requirement remained at 3 LPM with frequent desaturations to the mid 80's despite the intensification of mucolytic therapy.
On day 8, the previous treatments were discontinued and the essential oil mixture described in TABLE 1, above, including Lavandula latifolia (spike lavender), Thymus mastichina (Spanish marjoram), Abies balsamea (balsam fir), and Mentha×piperita (peppermint) was nebulized at the parents' request. Three drops were applied to a fibrous filter inserted into the base of a fan diffuser (Fan Fuser, Cinegraph, Inc. Seal Beach, Calif.). The mixture was diffused every six hours into the room and passively inhaled by MW. Oxygen requirement was reduced to 1.5 LPM within 12 hours. […] MW was weaned to ¼ LPM NC O2 on the second day of use wand discharged home with an spO2 of 97%, on day 10 of admission, day 20 of oxygen requirement.

Molecule	Steroid-sparing effect [1]	Oxygen requirement returned to ([2]; on NAC, when they remained persistently below spO2 93%) [LPM]	Oxygen requirement (NC O2) ([2]; over the next 24 hours after adding nebulized 20% NAC every eight hours, from 6 liters high-flow) [LPM]	Overall response of oxygen requirement to treatment [2]	Desaturations (spO2) ([2]; frequent desaturations despite intensified mucolytic therapy (NAC plus Dornase Alfa))	Oxygen requirement ([2]; nebulized 2.5 mg every twelve hours added on day 7, on top of NAC) [LPM]
CC12CCC(CC1)C(C)(C)O2 [eucalyptol, 1,8 cineole]	steroid-sparing effects	–	–	–	–	–
CC(=O)N[C@@H](CS)C(=O)O [n-acetyl cysteine (NAC), N-Acetyl Cysteine]	–	3	2	insufficient or worsening response	–	–
Dornase Alfa: recombinant human DNase which decreases the viscoelasticity of mucous (protein, UniProt P24855 23-282, looked up) Deoxyribonuclease-1: LKIAAFNIQTFGETKMSNATLVSYIVQILSRYDIALVQEVRDSHLTAVGKLLDNLNQDAPDTYHYVVSEPLGRNSYKERYLFVYRPDQVSAVDSYYYDDGCEPCGNDTFNREPAIVRFFSRFTEVREFAIVPLHAAPGDAVAEIDALYDVYLDVQEKWGLEDVMLMGDFNAGCSYVRPSQWSSIRLWTSPTFQWLIPDSADTTATPTHCAYDRIVVAGMLLRGAVVPDSALPFNFQAAYGLSDQLAQAISDHYPVEVMLK	–	–	–	insufficient or worsening response	mid 80's	3
